Reference: patent publication US20090062243A1, “Lupane-Type Triterpenoids Modified at 30-Position and Analogues Thereof” (ADVANCED LIFE SCIENCES, INC., priority 2007, published 2009)

Legend:
Format in all cases: cell-based
MCF-7 (breast carcinoma) = assay: MTS cell viability assay, MCF-7
Experimental: (§1) Cells were plated, the evening before treatment, for each treatment on 96-well plates (1×10^4 cells/well) in 100 μL volume per well. Analog solutions were prepared by diluting each test compound in DSMO (10 mM) with the appropriate cell growth media for each individual cell line, or in “Universal Media” if several cell lines were to be assayed in parallel, immediately prior to cell treatment. Universal Media consisted of 5 mL sodium pyruvate (100× liquid stock, MediaTech), 5 mL glucose (100×, 45% liquid stock, MediaTech), 5 mL Penicillin/Streptomycin (100× liquid stock, MediaTech), 10 mL sodium bicarbonate (50× liquid stock, MediaTech), 25 mL Fetal Calf Serum, 1.25 mL insulin (4 mg/mL, Gibco) and […] RPMI media with 2 mM L-glutamine for a total volume of 500 mL.
(§2) Cells were treated by aspirating plating media from each well and adding 80 μL of betulinic acid (control) or each analog solution in serial dilutions to the adherent cells. All treatments were performed in triplicate. Growth media (80 μL) was added to 3 blank wells (no cells) to measure background from the growth media. Growth media alone (no DMSO or test compound) was added to 3 wells containing cells to measure the baseline MTS activity. Vehicle (DMSO) control in serial dilutions, added to cells, was also included to monitor basal toxicity from DMSO. Cells were incubated at 37° C. for 72 h, or 120 h for the OVCAR cell lines. MTS reagent (per 96-well plate) were prepared by combining 2 mL of MTS working solution (Cell Titer AQueous Non-Radioactive Cell Proliferation Assay, Promega, cat#G1112), 100 μL of 0.92 mg/mL phenazine methosulfate/Dulbecco's PBS and 2.1 mL growth media. MTS reagent (40 μL) were added to each well and incubated at 37° C. for 1.5 to 4 h. Plates were gently shaken by hand until solution in each well appeared homogenous. Absorbances at 490 nm were measured on a Wallac Victor II plate reader at multiple time points following the addition of MTS reagent for each plate. Triplicate absorbance (490 nm) measurements were averaged following background (no cell) subtraction for each drug concentration. Percent Cell Viability was calculated for each drug concentration using the following equation:
(§3) {[Absorbance(analog treated)]/[Absorbance(DMSO treated)]}×100%
(§4) Cytotoxicity dose response for the triterpenoid derivatives synthesized in SK-MEL-2 (melanoma), A-375 (melanoma), Daoy (glioblastoma), LN-229 (glioblastoma), OVCAR-3 (ovarian carcinoma), HT-29 (colon carcinoma), MCF-7 (breast carcinoma) cell lines using the standard MTS assay is summarized in Table 1. In Table 1, compounds 22a-d and compounds 23a-c refer to structures 22 and 23 in Scheme 5, respectively. Compounds 24aa-an and 24ba-bq refer to structure 24 in Scheme 6. Compounds 26a-e refer to structure 26 in Scheme 6. Compounds 36a-c refer to structure 36 in Scheme 10.

HT-29 (colon carcinoma) = assay: MTS cell viability assay, HT-29
Experimental: as §1, §2, §3, §4

SK-MEL-2 (melanoma) = assay: MTS cell viability assay, SK-MEL-2
Experimental: as §1, §2, §3, §4

[1] = test system: OVCAR-3 (ovarian carcinoma); assay: MTS cell viability assay, OVCAR-3
Experimental: as §1, §2, §3, §4

LN-229 (glioblastoma) = assay: MTS cell viability assay, LN-229
Experimental: as §1, §2, §3, §4

A-375 (melanoma) = assay: MTS cell viability assay, A-375
Experimental: as §1, §2, §3, §4

Daoy = assay: MTS cell viability assay, Daoy; details: cells incubated 72 h
Experimental: as §1, §2, §3, §4

[2] = Homo sapiens, MCF7, cells incubated 72 h
[3] = Homo sapiens, HT-29, cells incubated 72 h
[4] = Homo sapiens, SK-MEL-2, cells incubated 72 h
[5] = Homo sapiens, OVCAR-3, 120 h for the OVCAR cell lines
[6] = Homo sapiens, LN-229, cells incubated 72 h
[7] = Homo sapiens, A-375, cells incubated 72 h

Row | SMILES | IC50 (MCF-7 (breast carcinoma); [2]) [µM] | IC50 (HT-29 (colon carcinoma); [3]) [µM] | IC50 (SK-MEL-2 (melanoma); [4]) [µM] | IC50 [1, 5] [µM] | IC50 (LN-229 (glioblastoma); [6]) [µM] | IC50 (A-375 (melanoma); [7]) [µM] | IC50 (Daoy; Homo sapiens, Daoy) [µM] | IC50 (MCF-7 (breast carcinoma); cells incubated 72 h) [µM] | IC50 (HT-29 (colon carcinoma); cells incubated 72 h) [µM] | IC50 (SK-MEL-2 (melanoma); cells incubated 72 h) [µM] | IC50 ([1]; 120 h for the OVCAR cell lines) [µM] | IC50 (LN-229 (glioblastoma); cells incubated 72 h) [µM] | IC50 (A-375 (melanoma); cells incubated 72 h) [µM] | IC50 (Daoy) [µM]
1 | C=C(C=O)[C@@H]1CC[C@]2(COC(C)=O)CC[C@]3(C)[C@H](CC[C@@H]4[C@@]5(C)CCC(=O)C(C)(C)[C@@H]5CC[C@]43C)[C@@H]12 [Compound 14a] | 56 | 46 | 12 | 4 | 9 | 16 | 7 |  |  |  |  |  |  | 
2 | C=C(COS(C)(=O)=O)[C@@H]1CC[C@]2(CO)CC[C@]3(C)[C@H](CC[C@@H]4[C@@]5(C)CCC(=O)C(C)(C)[C@@H]5CC[C@]43C)[C@@H]12 [Compound 21b] | 54 | 17 | > 75 | > 75 | 46 | 21 | > 75 |  |  |  |  |  |  | 
3 | C=C(CO)[C@@H]1CC[C@]2(COC3CCCCO3)CC[C@]3(C)[C@H](CC[C@@H]4[C@@]5(C)C=CC(=O)C(C)(C)[C@@H]5CC[C@]43C)[C@@H]12 (stereo partly drawn) [Compound 28] | 5 | 19 | 19 | 30 |  | 18 | 16 |  |  |  |  |  |  | 
4 | C=C(C=O)[C@@H]1CC[C@]2(CO)CC[C@]3(C)[C@H](CC[C@@H]4[C@@]5(C)CCC(=O)C(C)(C)[C@@H]5CC[C@]43C)[C@@H]12 [Compound 9b] | 56 | 52 | 16 | 6 | 20 | 18 | 16 |  |  |  |  |  |  | 
5 | C=C(CO)[C@@H]1CC[C@]2(COC3CCCCO3)CC[C@]3(C)[C@H](CC[C@@H]4[C@@]5(C)CCC(NCCc6ccc(O)c(O)c6)C(C)(C)[C@@H]5CC[C@]43C)[C@@H]12 (stereo partly drawn) [Compound 24ai] | 16 | 26 | 5 | 4 | 16 | 14 | 6 |  |  |  |  |  |  | 
6 | C=C(CO)[C@@H]1CC[C@]2(CO)CC[C@]3(C)[C@H](CC[C@@H]4[C@@]5(C)CCC(NCCc6ccc(O)c(O)c6)C(C)(C)[C@@H]5CC[C@]43C)[C@@H]12 (stereo partly drawn) [Compound 24aj] | 31 | 37 | 24 | 18 | 17 | 6 | 34 |  |  |  |  |  |  | 
7 | C=C(CO)[C@@H]1CC[C@]2(COC3CCCCO3)CC[C@]3(C)[C@H](CC[C@@H]4[C@@]5(C)CCC(=O)C(C)(C)[C@@H]5CC[C@]43C)[C@@H]12 (stereo partly drawn) [Compound 5] | 37 | 75 | 34 | 48 | 46 |  | 35 |  |  |  |  |  |  | 
8 | C=C(C=O)[C@@H]1CC[C@]2(COC3CCCCO3)CC[C@]3(C)[C@H](CC[C@@H]4[C@@]5(C)CCC(=O)C(C)(C)[C@@H]5CC[C@]43C)[C@@H]12 (stereo partly drawn) [Compound 9a] | 32 | 9 | 7 | 9 |  | < 3 | 7 |  |  |  |  |  |  | 
9 | C=C(CO)[C@@H]1CC[C@]2(CO)CC[C@]3(C)[C@H](CC[C@@H]4[C@@]5(C)CCC(NCCO)C(C)(C)[C@@H]5CC[C@]43C)[C@@H]12 (stereo partly drawn) [Compound 24ad] | 41 | 65 | 34 | 39 | 37 | 16 | 29 |  |  |  |  |  |  | 
10 | C=C(CNCCO)[C@@H]1CC[C@]2(CO)CC[C@]3(C)[C@H](CC[C@@H]4[C@@]5(C)CCC(=O)C(C)(C)[C@@H]5CC[C@]43C)[C@@H]12 [Compound 22b] | 47 | 45 | 45 | 67 | 16 | 10 | 47 |  |  |  |  |  |  | 
11 | C=C(CO)[C@@H]1CC[C@]2(CO)CC[C@]3(C)[C@H](CC[C@@H]4[C@@]5(C)CCC(NCCNC(=O)OC(C)(C)C)C(C)(C)[C@@H]5CC[C@]43C)[C@@H]12 (stereo partly drawn) [Compound 24am] |  |  |  |  |  |  |  | 35 | > 75 | 16 | 2.5 | 17 | 17 | 16
12 | C=C(CO)[C@@H]1CC[C@]2(COC3CCCCO3)CC[C@]3(C)[C@H](CC[C@@H]4[C@@]5(C)CCC(NCCO)C(C)(C)[C@@H]5CC[C@]43C)[C@@H]12 (stereo partly drawn) [Compound 24ac] | 36 | 60 | 15 | 7 | 11 | 13 | 15 |  |  |  |  |  |  | 
13 | C=C(CNCCO)[C@@H]1CC[C@]2(COC3CCCCO3)CC[C@]3(C)[C@H](CC[C@@H]4[C@@]5(C)CCC(NCCc6ccc(O)cc6)C(C)(C)[C@@H]5CC[C@]43C)[C@@H]12 (stereo partly drawn) [Compound 24be] |  |  |  |  |  |  |  | 5 | < 2 | 2 |  | 18 | < 2 | 0.5
14 | CC(CNCCO)[C@@H]1CC[C@]2(COC3CCCCO3)CC[C@]3(C)[C@H](CC[C@@H]4[C@@]5(C)CCC(O)C(C)(C)[C@@H]5CC[C@]43C)[C@@H]12 (stereo partly drawn) [Compound 36a] | 7 | 5 | 4 |  | 28 | 5 | 4 |  |  |  |  |  |  | 
15 | C=C(CNCCO)[C@@H]1CC[C@]2(CO)CC[C@]3(C)[C@H](CC[C@@H]4[C@@]5(C)CCC(NCCc6ccc(O)cc6)C(C)(C)[C@@H]5CC[C@]43C)[C@@H]12 (stereo partly drawn) [Compound 24bf] |  |  |  |  |  |  |  | 4 | < 2 | 5 |  | 14 | 2 | 1
16 | C=C(CNCCO)[C@@H]1CC[C@]2(COC3CCCCO3)CC[C@]3(C)[C@H](CC[C@@H]4[C@@]5(C)CCC(NCCO)C(C)(C)[C@@H]5CC[C@]43C)[C@@H]12 (stereo partly drawn) [Compound 24bg] |  |  |  |  |  |  |  | 4 | 3 | 5 |  | 18 | < 2 | 5
17 | C=C(CNCCO)[C@@H]1CC[C@]2(CO)CC[C@]3(C)[C@H](CC[C@@H]4[C@@]5(C)CCC(NCCO)C(C)(C)[C@@H]5CC[C@]43C)[C@@H]12 (stereo partly drawn) [Compound 24bh] |  |  |  |  |  |  |  | 6 | 2 | 7 |  | 16 | 6 | 13
